Test results as given in the NIST ThermoML archive (doi:10.1021/acs.jced.7b00581).

Conditions: 100 kPa, Liquid; for speed of sound: Single path-length method; for mass density: Vibrating tube method

CCCO [propan-1-ol]
Conditions | mass density [kg/m3] | speed of sound [m/s]
288.15 K | 807.834 | 1242.3
298.15 K | 799.597 | 1205.3
308.15 K | 791.399 | 1170.4
318.15 K | 783.121 | 1137.3
